Data on 1 compound can be found in patent publication US10987317B2, “Inhibition of glutaminase C” (Cornell University, priority 2009, dated 2021).

The subject of test [1] is GA activity in Dbl- and Cdc42(F28L)-expressing NIH 3T3 cells. As to the kind of experiment: GA activity in mitochondrial fractions of transformed fibroblasts. The format is cell-based. Particulars: 10 μM. How it is done:
(§1) 100%=620 moles of glutamine hydrolyzed per minute per mole of enzyme. Data represent the average of 3 experiments (±s.d.). […] Following precipitation of the beads and re-suspension, the samples are analyzed by Western blotting with anti-V5 antibody. […] Data represent the average of 3 experiments (±s.d.). […] Data represent the average of 3 experiments (±s.d.). […] Data represent the average of 3 experiments (±s.d.). FIG. 3E NIH 3T3 cells transiently expressing Dbl are assayed for focus formation in the presence of 10 μM 968 alone or together with […] dimethyl α-ketoglutarate. […] 100%=680 nM glutamine hydrolyzed per minute per 10^5 cells. Data are the average of 3 experiments (=s.d.). […] 100%=750 nM glutamine hydrolyzed per minute per 10^5 cells. Data represent the average of 3 experiments (±s.d.).
(§2) FIGS. 4A-E illustrate the role of glutaminase C activity in cellular transformation. […] Data represent the average of 3 experiments (±s.d.). […] Data represent the average of 3 experiments (±s.d.). […] 100% represents the activity measured in untreated Dbl-transformed cells. The data represent the average of 2 experiments. […] 100% represents the activity measured in untreated SKBR3 cells. The data represent the average of 2 experiments. […] Data represent the average of 3 experiments (±s.d.).
FIGS. 11A-E illustrate the effects of different treatments on GA activity. […] The addition of Pi stimulated the GA activity in control 3T3 cells, Dbl-expressing cells, and Cdc42(F28L)-expressing cells by ˜6-fold, 2-fold, and 3-fold, respectively. 100% represents the Pi-stimulated activity measured for Dbl-transformed cells that are not treated with 968. Data is the average of 3 experiments (±s.d.). […] The addition of Pi stimulated the GA activity of HMECs, MDA-MB231 cells, and SKBR3 cells by ˜5-fold, 2-fold, and 1.4-fold, respectively. 100% represents the Pi-stimulated activity for SKBR3 cells that were not treated with 968. Data are the average of 3 experiments (±s.d.). […] Mitochondrial fractions are prepared from equal numbers of cells and assayed for GA activity in the presence or absence of 133 mM Pi. The data are plotted as the percentage of GA activity measured for untreated SKBR3 cells and represent the average of 2 experiments. […] 100% represents the P1-stimulated activity measured for untreateDbl-transformed cells. The data represent the average of 2 experiments. […] 100% represents the Pi-stimulated activity for untreated SKBR3 cells. The data represent the average of 2 experiments.
Mitochondrial preparations were obtained using the mitochondria isolation kit from QIAGEN (Cat #37612). A suspension containing 2×10^7 cells was transferred into a 50 ml conical tube and centrifuged at 500×g for 10 minutes at 4° C. […]

For test [2], the system named is GA activity in SKBR3 cells. As to the kind of experiment: GA activity in mitochondrial fractions. Format: cell-based, human. Conditions: 10 μM, phosphate-independent. How it is done: as §1, §2
FIGS. 11A-E illustrate the effects of different treatments on GA activity. […] The addition of Pi stimulated the GA activity in control 3T3 cells, Dbl-expressing cells, and Cdc42(F28L)-expressing cells by ˜6-fold, 2-fold, and 3-fold, respectively. 100% represents the Pi-stimulated activity measured for Dbl-transformed cells that are not treated with 968. Data is the average of 3 experiments (±s.d.). […] The addition of Pi stimulated the GA activity of HMECs, MDA-MB231 cells, and SKBR3 cells by ˜5-fold, 2-fold, and 1.4-fold, respectively. […] The data are plotted as the percentage of GA activity measured for untreated SKBR3 cells and represent the average of 2 experiments. […] 100% represents the P1-stimulated activity measured for untreateDbl-transformed cells. […]

Test [3] concerns the target T1, V5-tagged GAC from Dbl-transformed NIH 3T3 cells (Mus musculus, UniProt D3Z7P3).
T1 construct: expressed in transfected cells; host or cells: NIH 3T3 cells stably expressing oncogenic Dbl
T1 sequence (D3Z7P3 55-603 isoform D3Z7P3-2 limits assumed): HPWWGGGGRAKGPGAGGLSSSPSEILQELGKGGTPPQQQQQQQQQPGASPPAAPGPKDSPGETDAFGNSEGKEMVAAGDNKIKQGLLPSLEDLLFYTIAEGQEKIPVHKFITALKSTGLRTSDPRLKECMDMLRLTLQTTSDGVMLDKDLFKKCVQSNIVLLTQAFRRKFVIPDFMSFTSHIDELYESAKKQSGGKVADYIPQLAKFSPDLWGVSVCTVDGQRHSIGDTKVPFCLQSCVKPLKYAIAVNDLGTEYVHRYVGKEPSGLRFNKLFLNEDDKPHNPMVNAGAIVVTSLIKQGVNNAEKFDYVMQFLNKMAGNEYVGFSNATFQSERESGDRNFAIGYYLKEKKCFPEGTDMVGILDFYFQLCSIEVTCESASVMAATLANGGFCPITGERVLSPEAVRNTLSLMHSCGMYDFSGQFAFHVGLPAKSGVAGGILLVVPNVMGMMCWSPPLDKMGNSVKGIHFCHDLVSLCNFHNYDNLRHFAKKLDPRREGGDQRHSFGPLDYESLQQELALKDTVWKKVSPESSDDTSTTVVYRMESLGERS
Briefly: GA activity of immunoprecipitated V5-GAC. Format: cell-based. Conditions: absence of phosphate.
Source text: as §2
NIH 3T3 cells or NIH 3T3 cells stably expressing the Dbl oncogene, were transiently transfected with DNA encoding a V5-tagged GAC. The cells were then harvested and the ectopically expressed GAC was isolated by immunoprecipitation via the V5 tag. The VS-GAC obtained from one of the Dbl samples was additionally treated with alkaline phosphtase under dephosphorylation conditions. The samples were then assayed for glutaminase activity in the absence of phosphate (top panel) and the relative expression levels of VS-GAC was determined by Western blotting using an anit-V5 antibody (bottom panel).
NIH 3T3 cells stably expressing oncogenic Dbl were transiently transfected with DNA encoding VS-tagged GAC, and cells were treated with either 968 or BA-968 ([…]) as indicated for 48 hours. The cells were then harvested and the ectopically expressed GAC was isolated by immunoprecipitation via the V5 tag. The samples were then assayed for glutaminase activity in the absence of phosphate (top panel) and the relative expression levels of VS-GAC was determined by Western blotting using an anti-V5 antibody (bottom panel).

Molecules are shown by their SMILES.

For the compound `CN(C)c1ccc(C2Nc3ccc4ccccc4c3C3=C2C(=O)CC(C)(C)C3)cc1Br` (centres unmarked) [Compound 968, 5-[3-bromo-4-(dimethylamino)phenyl]-2,2-dimethyl-2,3,5,6-tetrahydrobenzo[a]], the “GA activity of transformed cells” value in test [1] is on record as “inhibits”. Further, the “sensitivity of basal versus phosphate-stimulated GA activity” value in test [1] (133 mM Pi) is on record as “basal activity being more sensitive”. Also, the “basal GA activity” value in test [2] is “sensitive”. For the same compound, the “GA activity IPed from Dbl-transformed cells” value in test [3] (10 μM) is given as “inhibited”. The “GAC activity after treatment of cells (FIG. 19)” value in test [3] (cells treated 10 mM for 48 hours) is recorded as “effective inhibitors”.
